# According to PMC8115384 (Cell, 2021):
# Substitutions are numbered along the chain they refer to. Where two headings read alike, the source gives them in different places.
# Legend:
# [1] = biological target: T1, YGF mutant of zebrafish α1 glycine receptor (Danio rerio, UniProt O93430, F183Y/Y185F); experiment: Ligand binding with 3H-strychnine by SPA, YGF mutant in SMA
# T1 sequence (O93430 25-444 F183Y/Y185F): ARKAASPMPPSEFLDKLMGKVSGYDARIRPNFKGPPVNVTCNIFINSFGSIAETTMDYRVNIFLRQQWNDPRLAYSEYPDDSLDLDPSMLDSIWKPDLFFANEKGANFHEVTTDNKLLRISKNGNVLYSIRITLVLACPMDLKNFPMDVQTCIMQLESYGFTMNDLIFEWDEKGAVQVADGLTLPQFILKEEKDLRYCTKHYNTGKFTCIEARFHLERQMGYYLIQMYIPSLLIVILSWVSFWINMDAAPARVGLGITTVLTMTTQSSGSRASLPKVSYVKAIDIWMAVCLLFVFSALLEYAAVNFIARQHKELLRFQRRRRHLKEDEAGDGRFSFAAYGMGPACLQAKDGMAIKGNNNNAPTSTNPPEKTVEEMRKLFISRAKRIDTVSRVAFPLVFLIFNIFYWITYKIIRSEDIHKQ
# [2] = biological target: T2, Full-length zebrafish α1 GlyR (Danio rerio, UniProt O93430); experiment: Whole cell dose-response, FL GlyR; format: cell-based
# T2 sequence (O93430 25-444): T1 sequence (O93430 25-444 F183Y/Y185F) with Y159F, F161Y
# [3] = biological target: T3, FL receptor (full-length zebrafish α1 glycine receptor) (Danio rerio, UniProt O93430); experiment: Ligand binding with 3H-strychnine by SPA, FL receptor in SMA
# T3 sequence (O93430 25-444): T1 sequence (O93430 25-444 F183Y/Y185F) with Y159F, F161Y
# [4] = biological target: T4, F175Y/Y177F variant (YGF) of zebrafish α1 GlyR (Danio rerio, UniProt O93430, F183Y/Y185F); experiment: Cell-attached single-channel recording, cluster open probability, YGF mutant; format: cell-based; settings: HEK293A cells, single-channel clusters, 100 mM GABA
# T4 sequence (O93430 25-444 F183Y/Y185F): T1 sequence (O93430 25-444 F183Y/Y185F)
# [5] = biological target: T5, YYY mutant (F115Y/F175Y/F223Y) of GlyR (Danio rerio, UniProt O93430, F123Y/F183Y/F231Y); experiment: Single-channel open probability, YYY mutant; format: cell-based, zebrafish; settings: 100 mM GABA; similar Po in the YYY mutant as in the FL receptor
# T5 sequence (O93430 25-444 F123Y/F183Y/F231Y): T1 sequence (O93430 25-444 F183Y/Y185F) with F99Y, F161Y, F207Y
# [6] = biological target: T2, Full-length zebrafish α1 GlyR; experiment: Macroscopic currents in outside-out patches, fast agonist application
# [7] = tested on: GlyR Ser294 to cysteine mutant; settings: S294C vs wild type; ref Lynch et al., 2001; cited from earlier work
# [8] = biological target: T4, F175Y/Y177F variant (YGF) of zebrafish α1 GlyR; experiment: Whole cell dose-response, YGF mutant; format: cell-based; settings: HEK293A, ± SEM, n≥6 cells
Ki [1] [µM],EC50 [2] [µM],Ki [3] [µM],Po [4] [%],agonist efficacy (Po) in YYY mutant compared with FL receptor [5],SMILES,"EC50 ([2]; FL GlyR, whole cell, HEK293A, -40 mV, ± SEM, n≥6 cells) [µM]","current left at the end of the 1-s pulse, range over patches ([6]; 10 mM glycine, 8 patches)","current left at the end of the 1-s pulse, patch shown ([6]; 10 mM glycine, single outside-out patch of Figure S1A) [%]","current left, % of peak, after 1 s application (desensitization), average ([6]; saturating (10 mM) glycine, outside-out patches, n=8 patches) [%]",increase of glycine EC50 by mutation of Ser294 to cysteine [7],EC50 [8] [µM]
180 ± 70,28400 ± 900,1410 ± 940,92 ± 2,remained a weak partial agonist,"NCCCC(=O)O [GABA, γ-amino butyric acid]",–,–,–,–,–,–
–,–,–,–,–,NCC(=O)O [glycine],190 ± 20,17–89%,17,57 ± 8,~ 5 fold,33 ± 3
–,1050 ± 80,–,95 ± 5,–,NCCS(=O)(=O)O [taurine],–,–,–,–,–,–
